Data from US20030199590A1, “Prostaglandin analogues for promotion of hair growth” (priority 2002, published 2003).

Columns and labels:
FP receptors = target: T1, FP receptors (Bos taurus, UniProt P37289); assay: FP receptor binding assay ([3H]PGF2α, bovine corpus luteum membranes); conditions: Table 1; [3H]PGF2α, bovine corpus luteum membranes; free acid form
T1 construct: Washed total particulate bovine corpus luteum membranes; from tissue; host or cells: bovine corpus luteum membranes
Protocol: Non-specific binding was defined with 1-10 μM unlabeled PGF2α or fluprostenol. The assays were terminated by vacuum filtration (using Whatman GF/B glass fiber filter previously soaked in 0.3% polyethyleneimine) and the data analyzed by a non-linear, iterative, curve-fitting computer program.

[1] = target: T2, FP receptors (Swiss 3T3 cells expressing FP receptors) (Mus musculus, UniProt P43117); assay: FP receptor-mediated phosphoinositide turnover assay; assay type: cell-based; conditions: Table 1; for Emax: Swiss-3T3, 1 h, efficacy relative to standard full agonist (100%), read-out: FP functional (%) agonistic activity; for EC50: [3H]-IPs in Swiss 3T3 cells, read-out: FP functional EC50
T2 construct: endogenous in cells; host or cells: Swiss 3T3 cells
T2 sequence (P43117 whole entry): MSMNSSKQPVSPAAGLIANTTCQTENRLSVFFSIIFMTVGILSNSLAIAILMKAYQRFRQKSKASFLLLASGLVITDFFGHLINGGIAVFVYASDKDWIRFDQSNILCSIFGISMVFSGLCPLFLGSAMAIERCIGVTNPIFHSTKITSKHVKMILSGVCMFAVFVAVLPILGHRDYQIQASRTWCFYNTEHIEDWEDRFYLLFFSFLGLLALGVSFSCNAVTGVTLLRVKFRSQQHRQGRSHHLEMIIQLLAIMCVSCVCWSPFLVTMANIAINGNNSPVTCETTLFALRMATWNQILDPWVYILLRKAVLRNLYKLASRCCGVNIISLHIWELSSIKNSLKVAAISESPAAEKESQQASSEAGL
Protocol: FP receptor-mediated phosphoinositide turnover assay: [^3H]Inositol phosphates ([^3H]-IPs) produced by agonist-mediated activation of phospholipase C in Swiss 3T3 cells expressing FP receptors were quantified as follows. Confluent 3T3 cells were exposed to 1.0-1.5 μCi [^3H]-myo-inositol (18.3 Ci/mmol) in 0.5 ml DMEM for 24-30 hours at 37° C. Then cells were rinsed once with DMEM/F-12 containing 10 mM LiCl, and the agonist stimulation experiment was performed in 0.5 ml of the same medium to facilitate accumulation of [^3H]-IPs. Cells were exposed to the agonist or solvent for 60 min at 37° C. (triplicate determinations), followed by aspiration of the medium and immediate addition of 1 ml of ice-cold 0.1 M formic acid. The plates were kept cold and then frozen. Samples frozen up to one week were thawed prior to chromatographic separation of radiolabeled components. The cell lysates (0.9 ml) were loaded on columns packed with approximately 1 ml AG 1-X8 anion exchange resin. The elution procedure consisted of a wash with 10 ml of H2O, then 8 ml of 50 mM ammonium formate, and finally 4 ml of 1.2 M ammonium formate with 0.1 M formic acid, which was collected in a scintillation vial. To this eluate was added 15 ml of scintillation fluid and the total [^3H]-IPs determined by scintillation counting on a beta-counter. Data were analyzed by the sigmoidal fit function of the Origin Scientific Graphics software (Microcal Software, Northampton, Mass.) to determine agonist potency (EC50 value) and efficacy, relative to the standard cloprostenol.

T1 sequence (P37289 whole entry): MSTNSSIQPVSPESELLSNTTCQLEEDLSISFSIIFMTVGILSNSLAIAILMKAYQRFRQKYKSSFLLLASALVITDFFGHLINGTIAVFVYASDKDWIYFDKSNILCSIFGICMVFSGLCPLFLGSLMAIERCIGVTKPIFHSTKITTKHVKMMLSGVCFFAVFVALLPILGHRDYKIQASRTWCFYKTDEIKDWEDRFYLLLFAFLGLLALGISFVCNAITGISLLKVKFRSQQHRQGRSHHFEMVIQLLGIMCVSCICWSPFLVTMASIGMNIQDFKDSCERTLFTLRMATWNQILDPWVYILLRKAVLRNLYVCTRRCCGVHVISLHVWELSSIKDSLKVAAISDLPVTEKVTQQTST

SMILES | IC50 (FP receptors) [nM] | Emax [1] [%] | EC50 [1] [nM]
O=C(O)CCC/C=C\C[C@H]1CC[C@@H](O)[C@@H]1CC[C@@H](O)C1Cc2ccccc2C1 [Compound 11] | 1900 | 60 | 108
O=C(O)CCC/C=C\C[C@H]1[C@@H](O)CO[C@@H]1/C=C/[C@H](O)COc1cccc(Cl)c1 [Compound 14] | 7300 | 67 | 194
O=C(O)CCC/C=C\C[C@H]1[C@@H](O)CO[C@@H]1/C=C/[C@@H](O)COc1cccc(Cl)c1 [Compound 15] | 890 | 88 | 58
O=C(O)CCCCCC[C@H]1C(=O)CO[C@@H]1/C=C/[C@@H](O)COc1ccccc1 [Compound 20] | 9700 | 67 | 
O=C(O)CCCCCC[C@H]1C(=O)CO[C@@H]1/C=C/[C@H](O)COc1ccccc1 [Compound 21] | 78000 |  | > 10000
O=C(O)CCC/C=C\C[C@H]1[C@@H](O)CO[C@@H]1/C=C/[C@@H](O)COc1cccc(C(F)(F)F)c1 [Compound 26] | 1800 | 74 | 187
O=C(O)CCC/C=C\C[C@H]1[C@@H](O)CO[C@@H]1/C=C/[C@H](O)COc1cccc(C(F)(F)F)c1 [Compound 27] | 15000 | 43 | 889
O=C(O)CCC/C=C\C[C@H]1[C@@H](O)CO[C@@H]1/C=C/[C@@H](O)CCc1ccccc1 [Compound 28] | 1900 | 100 | 80
O=C(O)CCC/C=C\C[C@H]1[C@@H](O)CO[C@@H]1/C=C/[C@H](O)COc1ccc(F)cc1 [Compound 36] | 4600 | 75 | 1240
O=C(O)CCC/C=C\C[C@H]1[C@@H](O)CO[C@@H]1/C=C/[C@@H](O)COc1ccc(F)cc1 [Compound 37] | 1400 | 78 | 437
O=C(O)CCC/C=C\C[C@@H]1C(C#C[C@H](O)COc2cccc(Cl)c2)OC[C@@H]1O (stereo partly drawn) [Compound 38] | 36000 |  | > 10000
O=C(O)CCC/C=C\C[C@@H]1C(C#C[C@@H](O)COc2cccc(Cl)c2)OC[C@@H]1O (stereo partly drawn) [Compound 39] | 5100 | 100 | 509
O=C(O)CC/C=C\CC[C@H]1[C@@H](O)CO[C@@H]1/C=C/[C@H](O)COc1ccccc1 [Compound 50] | 5100 | 59 | 252
O=C(O)CC/C=C\CC[C@H]1[C@@H](O)CO[C@@H]1/C=C/[C@H](O)COc1cccc(C(F)(F)F)c1 [Compound 51] | 9900 | 61 | 781
O=C(O)CCC/C=C\C[C@@H]1[C@@H](/C=C/[C@H](F)COc2ccccc2)[C@H](O)C[C@@H]1O [Compound 60] | 1120 | 98 | 96
O=C(O)CCC/C=C\C[C@@H]1[C@@H](OC[C@H](O)COc2cccc(Cl)c2)[C@H](O)C[C@@H]1O [Compound 66] | 4340 | 56 | 503
O=C(O)CCC/C=C\C[C@@H]1[C@@H](OC[C@H](O)COc2ccccc2)[C@H](O)C[C@@H]1O [Compound 70] | 1070 | 57 | 166
O=C(O)CCC/C=C\C[C@@H]1[C@@H](/C=C/[C@H](F)COc2cccc(C(F)(F)F)c2)[C@H](O)C[C@@H]1O [Compound 76] | 4200 | 44.5 | 131

Now those with a lower IC50 (FP receptors), led by results:

IC50 (FP receptors) [nM] | Emax [1] [%] | EC50 [1] [nM] | SMILES
96 | 87.6 | 19.6 | O=C(O)CCC/C=C\C[C@H]1CC[C@@H](O)[C@@H]1/C=C/[C@@H](O)CCc1ccccc1 [Compound 1]
310 | 60 | 76.6 | O=C(O)CCC/C=C\C[C@H]1CC[C@@H](O)[C@@H]1CC[C@@H](O)CCc1ccccc1 [Compound 2]
10 | 100 | 2.6 | O=C(O)CCC/C=C\C[C@H]1CC[C@@H](O)[C@@H]1/C=C/[C@@H](O)COc1cccc(Cl)c1 [Compound 6]
47 | 84 | 6.6 | O=C(O)CCC/C=C\C[C@H]1CC[C@@H](O)[C@@H]1CC[C@@H](O)CCc1cccc(Cl)c1 [Compound 8]
26 | 64 | 9 | O=C(O)CCC/C=C\C[C@@H]1[C@@H](CC[C@@H](F)COc2cccc(Cl)c2)[C@H](O)C[C@@H]1O [Compound 17]
230 | 85 | 12.5 | O=C(O)CCC/C=C\C[C@@H]1[C@@H](CC[C@@H](F)COc2cccc(C(F)(F)F)c2)[C@H](O)C[C@@H]1O [Compound 24]
573 | 100 | 48.6 | O=C(O)CCC/C=C\C[C@H]1[C@@H](O)CO[C@@H]1/C=C/[C@H](O)COc1ccccc1 [Compound 32]
640 | 67 | 293 | O=C(O)CCC/C=C\C[C@H]1[C@@H](O)CO[C@@H]1/C=C/[C@@H](O)COc1ccccc1 [Compound 33]
430 | 82 | 23 | O=C(O)CC/C=C\CC[C@H]1[C@@H](O)CO[C@@H]1/C=C/[C@@H](O)COc1cccc(Cl)c1 [Compound 40]
52 | 79 | 9.5 | O=C(O)CCC/C=C\C[C@@H]1[C@@H](CC[C@@H](F)COc2ccccc2)[C@H](O)C[C@@H]1O [Compound 45]
330 | 83 | 57 | O=C(O)CC/C=C\CC[C@H]1[C@@H](O)CO[C@@H]1/C=C/[C@@H](O)COc1ccccc1 [Compound 52]
350 | 92 | 96 | O=C(O)CC/C=C\CC[C@H]1[C@@H](O)CO[C@@H]1/C=C/[C@@H](O)COc1cccc(C(F)(F)F)c1 [Compound 53]
818 | 71 | 249 | O=C(O)CC/C=C\CC[C@H]1[C@@H](O)CO[C@@H]1/C=C/[C@H](O)COc1cccc(Cl)c1 [Compound 54]
267 | 104 | 3.8 | O=C(O)CCC/C=C\C[C@@H]1[C@@H](/C=C/[C@@H](F)COc2ccccc2)[C@H](O)C[C@@H]1O [Compound 57]
182 | 76 | 81 | O=C(O)CCC/C=C\C[C@@H]1[C@@H](/C=C/[C@H](F)COc2cccc(Cl)c2)[C@H](O)C[C@@H]1O [Compound 62]
238 | 84 | 2.2 | O=C(O)CCC/C=C\C[C@@H]1[C@@H](/C=C/[C@@H](F)COc2cccc(Cl)c2)[C@H](O)C[C@@H]1O [Compound 63]
540 | 91 | 57.8 | O=C(O)CCC/C=C\C[C@@H]1[C@@H](OC[C@@H](O)COc2cccc(Cl)c2)[C@H](O)C[C@@H]1O [Compound 65]
277 | 57 | 56 | O=C(O)CCC/C=C\C[C@@H]1[C@@H](OC[C@@H](O)COc2ccccc2)[C@H](O)C[C@@H]1O [Compound 69]
690 | 67 | 8.8 | O=C(O)CC/C=C\CC[C@@H]1[C@@H](CC[C@@H](F)COc2ccccc2)[C@H](O)C[C@@H]1O [Compound 74]
160 | 83 | 11.1 | O=C(O)CCC/C=C\C[C@@H]1[C@@H](/C=C/[C@@H](F)COc2cccc(C(F)(F)F)c2)[C@H](O)C[C@@H]1O [Compound 75]
